Experimental findings from ChEMBL document CHEMBL3576835, “Design and synthesis of potent 1,2,4-trisubstituted imidazolinone derivatives with dual p38αMAPK and ERK1/2 inhibitory activity” (Eur J Med Chem, 2015) are described below.

Test [1] deals with Mitogen-activated protein kinase 14 (Homo sapiens, UniProt Q16539). The test is described as follows: Inhibition of p38alpha MAP kinase (unknown origin) using GFP-ATF2 as substrate after 1 hr by TR-FRET assay.
In test [2] the target is Mitogen-activated protein kinase 3 (Homo sapiens, UniProt P27361). The test is described as follows: Inhibition of ERK1 (unknown origin) using GFP-ATF2 as substrate after 1 hr by TR-FRET assay.
In test [3] the target is Mitogen-activated protein kinase 1 (Homo sapiens, UniProt P28482). Briefly: Inhibition of ERK2 (unknown origin) using GFP-ATF2 as substrate after 1 hr by TR-FRET assay. In general terms: Time-resolved FRET reads energy transfer from a long-lived donor to a nearby acceptor.
The subject of test [4] is MCF7. Briefly: Antiproliferative activity against human MCF7 cells assessed as inhibition of cell vaibility after 72 hrs by MTT assay. In kind it is functional, cell-based. The conditions noted are these: MCF7, 72 h. (Tetrazolium assays rely on reduction of a dye to a coloured formazan, in cell work by metabolically active cells.)
In test [5] the test system is T47D. The test is described as follows: Antiproliferative activity against human T47D cells assessed as inhibition of cell vaibility after 72 hrs by MTT assay. The test is classed as functional, cell-based.
The nature of test [6]: Antiproliferative activity against human COLO205 cells assessed as inhibition of cell vaibility after 72 hrs by MTT assay. In kind it is functional, cell-based. Conditions: COLO 205, 72 h.
For test [7], the system named is HT-29. The test is described as follows: Antiproliferative activity against human HT-29 cells assessed as inhibition of cell vaibility after 72 hrs by MTT assay. The test is classed as functional, cell-based. The conditions noted are these: HT-29, 72 h.
Another test concerns K562. Briefly: Antiproliferative activity against human K562 cells assessed as inhibition of cell vaibility after 72 hrs by MTT assay. In kind it is functional, cell-based. Conditions: K562, 72 h.
The subject of test [8] is A549. Briefly: Antiproliferative activity against human A549 cells assessed as inhibition of cell vaibility after 72 hrs by MTT assay. The test is classed as functional, cell-based. Conditions: A549, 72 h.
A short description of test [9]: Antiproliferative activity against human LOXIMVI cells assessed as inhibition of cell vaibility after 72 hrs by MTT assay. In kind it is functional, cell-based. The conditions noted are these: LOX IMVI.
In the next test the test system is MDA-MB-435. The test is described as follows: Antiproliferative activity against human MDA-MB-435 cells assessed as inhibition of cell vaibility after 72 hrs by MTT assay. The test is classed as functional, cell-based. The conditions noted are these: MDA-MB-435, 72 h.
A further test has as its system PC-3. Briefly: Antiproliferative activity against human PC3 cells assessed as inhibition of cell vaibility after 72 hrs by MTT assay. In kind it is functional, cell-based. The conditions noted are these: PC-3, 72 h.
For test [10], the system named is Vero. The test is described as follows: Cytotoxicity against African green monkey Vero cells assessed as inhibition of cell viability after 72 hrs by MTT assay. In kind it is cell-based. The conditions noted are these: Chlorocebus sabaeus.
The test system of test [11] is MCF7. Briefly: Selectivity index, ratio of IC50 for African green monkey Vero cells to IC50 for human MCF7 cells. The test is classed as functional.
Test [12] concerns T47D. The test is described as follows: Selectivity index, ratio of IC50 for African green monkey Vero cells to IC50 for human T47D cells. The test is classed as functional.
The subject of test [13] is Vero. The test is described as follows: Selectivity index, ratio of IC50 for African green monkey Vero cells to IC50 for human COLO205 cells. The test is classed as functional.
The subject of test [14] is HT-29. Briefly: Selectivity index, ratio of IC50 for African green monkey Vero cells to IC50 for human HT-29 cells. In kind it is functional.
Test [15] relates to A549. Briefly: Selectivity index, ratio of IC50 for African green monkey Vero cells to IC50 for human A549 cells. The test is classed as functional.
Test [16] concerns Vero. Briefly: Selectivity index, ratio of IC50 for African green monkey Vero cells to IC50 for human LOXIMVI cells. In kind it is functional.
Test [17] has as its system Vero. Briefly: Selectivity index, ratio of IC50 for African green monkey Vero cells to IC50 for human MDA-MB-435 cells. In kind it is functional.
The test system of test [18] is Vero. The test is described as follows: Selectivity index, ratio of IC50 for African green monkey Vero cells to IC50 for human PC3 cells. In kind it is functional.

Mitogen-activated protein kinase 1, sequence (P28482 whole entry): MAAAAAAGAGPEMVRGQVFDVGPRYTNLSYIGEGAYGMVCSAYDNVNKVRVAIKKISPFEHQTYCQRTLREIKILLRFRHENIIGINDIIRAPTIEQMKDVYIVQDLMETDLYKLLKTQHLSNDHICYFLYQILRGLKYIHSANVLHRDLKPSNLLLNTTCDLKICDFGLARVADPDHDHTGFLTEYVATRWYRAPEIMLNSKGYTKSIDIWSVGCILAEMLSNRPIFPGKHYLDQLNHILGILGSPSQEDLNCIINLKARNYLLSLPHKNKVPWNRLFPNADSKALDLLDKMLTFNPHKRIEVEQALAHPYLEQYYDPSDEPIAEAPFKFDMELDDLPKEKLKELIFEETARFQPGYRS
Mitogen-activated protein kinase 14, sequence (Q16539 whole entry): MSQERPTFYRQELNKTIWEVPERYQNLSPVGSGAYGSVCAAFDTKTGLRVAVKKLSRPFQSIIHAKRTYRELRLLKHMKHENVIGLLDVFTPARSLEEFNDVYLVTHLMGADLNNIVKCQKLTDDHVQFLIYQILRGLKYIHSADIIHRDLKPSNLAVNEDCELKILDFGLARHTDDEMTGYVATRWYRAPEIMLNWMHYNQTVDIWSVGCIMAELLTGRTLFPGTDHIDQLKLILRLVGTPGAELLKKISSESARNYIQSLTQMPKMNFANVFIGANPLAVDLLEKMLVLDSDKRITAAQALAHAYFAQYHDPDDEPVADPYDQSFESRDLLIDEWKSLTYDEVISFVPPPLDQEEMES
Mitogen-activated protein kinase 3, sequence (P27361 whole entry): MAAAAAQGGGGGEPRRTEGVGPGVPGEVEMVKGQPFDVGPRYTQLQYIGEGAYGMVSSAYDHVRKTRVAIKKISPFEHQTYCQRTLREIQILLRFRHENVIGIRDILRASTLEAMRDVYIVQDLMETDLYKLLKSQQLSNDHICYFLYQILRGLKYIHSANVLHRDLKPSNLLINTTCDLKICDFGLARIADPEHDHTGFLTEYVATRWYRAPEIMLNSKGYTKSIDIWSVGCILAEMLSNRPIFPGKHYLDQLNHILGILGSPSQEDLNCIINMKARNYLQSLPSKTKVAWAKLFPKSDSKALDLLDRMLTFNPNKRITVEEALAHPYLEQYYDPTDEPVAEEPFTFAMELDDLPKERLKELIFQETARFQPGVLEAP

In the case of `COc1ccc(N2C(=O)/C(=C/c3ccc(OCC(=O)Nc4cccc(C)c4)cc3)N=C2c2ccccc2)cc1`, the values for the IC50 in test [1], in [2] and in test [3] were 0.077 µM, 0.089 µM and 0.078 µM, respectively.
As for `COc1ccc(N2C(=O)/C(=C/c3ccc(OCC(=O)Nc4ccccc4OC)cc3)N=C2c2ccccc2)cc1`, the IC50 worked out at 0.034 µM in test [1], 0.043 µM in test [2] and 0.089 µM in test [3].
The matching figures for `COc1cccc(N2C(=O)/C(=C/c3ccc(OCC(=O)Nc4ccccc4C)cc3)N=C2c2ccccc2)c1`: 0.066 µM, 0.043 µM and 0.044 µM.
Taken in the same sequence, the figures for `COc1cccc(N2C(=O)/C(=C/c3ccc(OCC(=O)Nc4ccccc4)cc3)N=C2c2ccccc2)c1` were 0.035 µM, 0.065 µM and 0.054 µM.
The matching figures for `COc1cccc(N2C(=O)/C(=C/c3ccc(OCC(=O)Nc4cccc(Cl)c4)cc3)N=C2c2ccccc2)c1`: 0.0037 µM, 0.089 µM and 0.0034 µM.
In the case of `COc1cccc(N2C(=O)/C(=C/c3ccc(OCC(=O)Nc4ccc(C)cc4)cc3)N=C2c2ccccc2)c1`, the IC50 in test [1] was 0.0045 µM; in test [2], 0.025 µM; in test [3], 0.0032 µM; in the test on MCF7 [4], 0.37 µM; in the test on T47D [5], 0.67 µM; in test [6], 9.4 µM. The IC50 is 5.8 µM with HT-29 [7]; over 100 µM in the test with K562; 6.5 µM with A549 [8]; 0.76 µM in [9]; 0.23 µM in the test on MDA-MB-435; 0.86 µM in the test on PC-3. The half-maximal inhibitory concentration (IC50) in the test with Vero [10] worked out at 17.3 µM. Further, the “Ratio IC50” value was found to be 46.86 in the test with MCF7 [11]; 25.88 in the test with T47D [12]; 1.85 in the test with Vero [13]; 2.98 in the test on HT-29 [14]; 2.66 in the test with A549 [15]; 22.81 in the test with Vero [16]. The “Ratio IC50” value is 75.39 with Vero [17] and 20.16 in the test on Vero [18].
Take `COc1ccc(N2C(=O)/C(=C/c3ccc(OCC(=O)Nc4ccc(C)cc4)cc3)N=C2c2ccccc2)cc1`: the values for the IC50 in [1], in [2] and in test [3] were 0.345 µM, 0.023 µM and 0.043 µM, respectively.
As to `COc1ccc(N2C(=O)/C(=C/c3ccc(OCC(=O)Nc4ccccc4C)cc3)N=C2c2ccccc2)cc1`, the figures for the IC50 in [1], in test [2] and in test [3] were 0.056 µM, 0.032 µM and 0.023 µM, respectively.
As to `CNC(=O)c1cc(Oc2ccc(NC(=O)Nc3ccc(Cl)c(C(F)(F)F)c3)cc2)ccn1` [SORAFENIB], the IC50 with MCF7 [4] came to 0.78 µM; with T47D [5], 0.61 µM; in test [6], 0.87 µM; with HT-29 [7], 0.39 µM; in the test with K562, 1.22 µM; with A549 [8], 3.19 µM. Moreover, the IC50 is 4.25 µM in test [9], 1.67 µM in the test on MDA-MB-435 and 4.13 µM with PC-3.
`COc1cccc(N2C(=O)/C(=C/c3ccc(OCC(=O)Nc4ccccc4Cl)cc3)N=C2c2ccccc2)c1`: the IC50 came out at 0.0056 µM in test [1], 0.087 µM in test [2] and 0.0053 µM in test [3].
As to `COc1ccc(N2C(=O)/C(=C/c3ccc(OCC(=O)Nc4ccc(Cl)cc4)cc3)N=C2c2ccccc2)cc1`, the IC50 was 0.044 µM in test [1], 0.047 µM in [2] and 0.0045 µM in [3].
For the compound `COc1cccc(N2C(=O)/C(=C/c3ccc(OCC(=O)Nc4ccccc4OC)cc3)N=C2c2ccccc2)c1`, the figures for the IC50 in test [1], in test [2] and in [3] were 0.054 µM, 0.046 µM and 0.0047 µM, respectively.
Taken in the same sequence, the figures for `COc1ccc(N2C(=O)/C(=C/c3ccc(OCC(=O)Nc4cccc(OC)c4)cc3)N=C2c2ccccc2)cc1` were 0.023 µM, 0.021 µM and 0.021 µM.
Taken in the same sequence, the figures for `COc1ccc(NC(=O)COc2ccc(/C=C3\N=C(c4ccccc4)N(c4cccc(OC)c4)C3=O)cc2)cc1` were 0.0043 µM, 0.076 µM and 0.0043 µM.
The matching figures for `COc1cccc(N2C(=O)/C(=C/c3ccc(OCC(=O)Nc4cccc(C)c4)cc3)N=C2c2ccccc2)c1`: 0.087 µM, 0.02 µM and 0.043 µM.
As for `COc1ccc(N2C(=O)/C(=C/c3ccc(OCC(=O)Nc4cccc(Cl)c4)cc3)N=C2c2ccccc2)cc1`, the values for the IC50 in test [1], in test [2] and in test [3] were 0.0045 µM, 0.035 µM and 0.007 µM, respectively.
Taken in the same sequence, the figures for `COc1ccc(NC(=O)COc2ccc(/C=C3\N=C(c4ccccc4)N(c4ccc(OC)cc4)C3=O)cc2)cc1` were 0.345 µM, 0.023 µM and 0.0023 µM.
Taken in the same sequence, the figures for `COc1ccc(N2C(=O)/C(=C/c3ccc(OCC(=O)Nc4ccccc4)cc3)N=C2c2ccccc2)cc1` were 0.354 µM, 0.023 µM and 0.023 µM.
Regarding `COc1ccc(N2C(=O)/C(=C/c3ccc(OCC(=O)Nc4ccccc4Cl)cc3)N=C2c2ccccc2)cc1`, the IC50 is 0.0047 µM in [1]; 0.024 µM in test [2]; 0.0035 µM in [3]; 0.53 µM with MCF7 [4]; 0.5 µM with T47D [5]; 4.5 µM in test [6]. For the same compound, the IC50 in the test on HT-29 [7] was 4.5 µM; in the test with K562, over 100 µM; in the test on A549 [8] it was 4.9 µM; in test [9] it was 0.13 µM; with MDA-MB-435, 0.05 µM; in the test on PC-3, 0.99 µM. In addition, the IC50 in the test on Vero [10] turned out to be 13.2 µM. In addition, the “Ratio IC50” value with MCF7 [11] is reported as 24.9; with T47D [12], 26.4; in the test with Vero [13] it was 2.93; in the test with HT-29 [14] it was 2.93; in the test on A549 [15], 2.69; in the test with Vero [16], 101.54. Also, the “Ratio IC50” value in the test on Vero [17] amounted to 264; in the test on Vero [18], 13.33.
As to `COc1cccc(NC(=O)COc2ccc(/C=C3\N=C(c4ccccc4)N(c4cccc(OC)c4)C3=O)cc2)c1`, the IC50 in test [1] was found to be 0.0065 µM; in test [2], 0.057 µM; in [3], 0.0054 µM.
On to `COc1cccc(N2C(=O)/C(=C/c3ccc(OCC(=O)Nc4ccc(Cl)cc4)cc3)N=C2c2ccccc2)c1`, for which the IC50 was 0.0046 µM in test [1], 0.095 µM in test [2] and 0.0046 µM in test [3].

As a reminder, the IC50 is the concentration that gives 50% inhibition.
